# US6358885B1, “Substituted phenylheterocyclic herbicides” (Mississippi State University, priority 1992, dated 2002)
# How the values were obtained:
# [1] = test system: duck salad; experiment: Test C flood test plant response rating 0 to 100; type: in vivo, Heteranthera limosa
# Summary of the method: (§1)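 Compounds in non-phytotoxic solvent applied preemergence to sandy loam one day after planting, postemergence at the 1–4 leaf stage, or to ~2.5 cm floodwater over silt loam.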
# [2] = test system: crabgrass; experiment: Test B preemergence/postemergence greenhouse plant response rating 0 to 10; type: in vivo, Digitaria spp.; details: for Plant response rating, Crabgrass: 0 to 10 scale
# Summary of the method: (§2)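 Planted seeds are treated preemergence with compound dissolved in a non-phytotoxic solvent, while postemergence applications go onto plants of two to eighteen cm. Plants stay in the greenhouse twelve to sixteen days and are then rated visually relative to controls.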
# [3] = test system: wheat; experiment: as above; type: in vivo, Triticum aestivum; details: 0 to 10 scale
# Summary of the method: as §2
# [4] = test system: chickweed; experiment: as above; type: in vivo, Stellaria media; details: POSTEMERGENCE
# Summary of the method: as §2
# [5] = test system: rice; experiment: Test C flood test plant response rating 0 to 100; type: in vivo, Oryza sativa
# Summary of the method: as §1
# [6] = test system: crabgrass; experiment: Test C preemergence/postemergence greenhouse plant response rating 0 to 100; type: in vivo, Digitaria sanguinalis; details: POSTEMERGENCE
# Summary of the method: as §1
# [7] = test system: giant foxtail; experiment: as above; type: in vivo, Setaria faberii; details: POSTEMERGENCE
# Summary of the method: as §1
# [8] = test system: sorghum; experiment: Test B preemergence/postemergence greenhouse plant response rating 0 to 10; type: in vivo, Sorghum bicolor; details: 0 to 10 scale
# Summary of the method: as §2
# [9] = test system: barley; experiment: as above; type: in vivo, Hordeum vulgare; details: for Plant response rating, Barley: 0 to 10 scale
# Summary of the method: as §2
# [10] = test system: rape; experiment: as above; type: in vivo, Brassica napus; details: 0 to 10 scale
# Summary of the method: as §2
# [11] = test system: bedstraw; experiment: Test C preemergence/postemergence greenhouse plant response rating 0 to 100; type: in vivo, Galium aparine; details: POSTEMERGENCE
# Summary of the method: as §1
# [12] = test system: wild buckwheat; experiment: as above; type: in vivo, Polygonum convolvulus; details: POSTEMERGENCE
# Summary of the method: as §1
# [13] = test system: downy brome; experiment: as above; type: in vivo, Bromus tectorum; details: POSTEMERGENCE
# Summary of the method: as §1
# [14] = test system: wild oat; experiment: as above; type: in vivo, Avena fatua; details: POSTEMERGENCE
# Summary of the method: as §1
# [15] = test system: barnyardgrass; experiment: Test B preemergence/postemergence greenhouse plant response rating 0 to 10; type: in vivo, Echinochloa crus-galli; details: for Plant response rating, Barnyardgrass: 0 to 10 scale
# Summary of the method: as §2
# [16] = test system: corn; experiment: as above; type: in vivo, Zea mays; details: for Plant response rating, Corn: 0 to 10 scale
# Summary of the method: as §2
# [17] = test system: giant foxtail; experiment: as above; type: in vivo, Setaria faberii; details: 0 to 10 scale
# Summary of the method: as §2
# [18] = test system: chickweed; experiment: Test C preemergence/postemergence greenhouse plant response rating 0 to 100; type: in vivo, Stellaria media; details: POSTEMERGENCE
# Summary of the method: as §1
# [19] = POSTEMERGENCE section, flood test, Rate 1 g/ha
# [20] = POSTEMERGENCE section, flood test, Rate 4 g/ha
# [21] = Rate 16 g/ha, under POSTEMERGENCE head (flood test species)
# [22] = flood test species listed under POSTEMERGENCE, 62 g/ha, 0 to 100 scale
compound,measurement,setting,value
CC(C)N1C(=O)COc2cc(F)c(-c3nn4c(c3Cl)CCCC4)cc21 [Compound 31],"Plant response rating (0 to 100), Duck salad",[1]; [19],0
same,"Plant response rating (0 to 100), Duck salad",[1]; [20],0
same,"Plant response rating (0 to 100), Duck salad",[1]; [21],40
same,Plant response rating Duck salad,[1]; [22],40
same,"Plant response rating, Crabgrass","[2]; POSTEMERGENCE, Rate 10 g/ha",4
same,"Plant response rating (0 to 10 scale), Crabgrass","[2]; POSTEMERGENCE, Rate 50 g/ha",4
same,"Plant response rating, Crabgrass","[2]; PREEMERGENCE, Rate 10 g/ha",0
same,"Plant response rating, Crabgrass","[2]; PREEMERGENCE, Rate 50 g/ha",2
same,"Plant response rating, Wheat","[3]; POSTEMERGENCE, Rate 10 g/ha",5
same,"Plant response rating, Wheat","[3]; POSTEMERGENCE, Rate 50 g/ha",5
same,"Plant response rating, Wheat","[3]; PREEMERGENCE, Rate 50 g/ha",1
same,"Plant response rating, Chickweed","[4]; Rate 10 g/ha, 0 to 10 scale",10
same,"Plant response rating (0 to 10 scale), Chickweed",[4]; Rate 50 g/ha,10
same,"Plant response rating (0 to 100), Rice Japonica",[5]; [19],0
same,"Plant response rating (0 to 100), Rice Japonica",[5]; [20],0
same,"Plant response rating (0 to 100), Rice Japonica",[5]; [21],35
same,Plant response rating Rice Japonica,[5]; [22],50
same,"Plant response rating, Crabgrass","[6]; 62 g/ha, 0 to 100 scale",50
same,"Plant response rating (0 to 100), Crabgrass",[6]; Rate 1 g/ha,10
same,"Plant response rating (0 to 100), Crabgrass",[6]; Rate 4 g/ha,20
same,"Plant response rating (0 to 100), Crabgrass",[6]; Rate 16 g/ha,30
same,"Plant response rating, Giant foxtail","[7]; 62 g/ha, 0 to 100 scale",40
same,"Plant response rating (0 to 100), Giant foxtail",[7]; Rate 1 g/ha,10
same,"Plant response rating (0 to 100), Giant foxtail",[7]; Rate 4 g/ha,20
same,"Plant response rating (0 to 100), Giant foxtail",[7]; Rate 16 g/ha,30
same,"Plant response rating, Sorghum","[8]; POSTEMERGENCE, Rate 10 g/ha",5
same,"Plant response rating, Sorghum","[8]; POSTEMERGENCE, Rate 50 g/ha",4
same,"Plant response rating, Sorghum","[8]; PREEMERGENCE, Rate 50 g/ha",0
same,"Plant response rating, Barley","[9]; POSTEMERGENCE, Rate 10 g/ha",5
same,"Plant response rating (0 to 10 scale), Barley","[9]; POSTEMERGENCE, Rate 50 g/ha",5
same,"Plant response rating, Barley","[9]; PREEMERGENCE, Rate 10 g/ha",0
same,"Plant response rating, Barley","[9]; PREEMERGENCE, Rate 50 g/ha",0
same,"Plant response rating, Rape","[10]; POSTEMERGENCE, Rate 10 g/ha",5
same,"Plant response rating, Rape","[10]; POSTEMERGENCE, Rate 50 g/ha",9
same,"Plant response rating, Rape","[10]; PREEMERGENCE, Rate 50 g/ha",1
same,"Plant response rating, Bedstraw","[11]; 62 g/ha, 0 to 100 scale",100
same,"Plant response rating (0 to 100), Bedstraw",[11]; Rate 1 g/ha,75
same,"Plant response rating (0 to 100), Bedstraw",[11]; Rate 4 g/ha,85
same,"Plant response rating (0 to 100), Bedstraw",[11]; Rate 16 g/ha,100
same,"Plant response rating, Wild buckwheat","[12]; 62 g/ha, 0 to 100 scale",100
same,"Plant response rating (0 to 100), Wild buckwheat",[12]; Rate 1 g/ha,70
same,"Plant response rating (0 to 100), Wild buckwheat",[12]; Rate 4 g/ha,70
same,"Plant response rating (0 to 100), Wild buckwheat",[12]; Rate 16 g/ha,100
same,Plant response rating Downy Brome,"[13]; 62 g/ha, 0 to 100 scale",40
same,"Plant response rating (0 to 100), Downy Brome",[13]; Rate 1 g/ha,10
same,"Plant response rating (0 to 100), Downy Brome",[13]; Rate 4 g/ha,20
same,"Plant response rating (0 to 100), Downy Brome",[13]; Rate 16 g/ha,40
same,"Plant response rating, Wild oat","[14]; 62 g/ha, 0 to 100 scale",50
same,"Plant response rating (0 to 100), Wild oat",[14]; Rate 1 g/ha,10
same,"Plant response rating (0 to 100), Wild oat",[14]; Rate 4 g/ha,30
same,"Plant response rating (0 to 100), Wild oat",[14]; Rate 16 g/ha,30
same,"Plant response rating, Barnyardgrass","[15]; POSTEMERGENCE, Rate 10 g/ha",4
same,"Plant response rating (0 to 10 scale), Barnyardgrass","[15]; POSTEMERGENCE, Rate 50 g/ha",6
same,"Plant response rating, Barnyardgrass","[15]; PREEMERGENCE, Rate 10 g/ha",0
same,"Plant response rating, Barnyardgrass","[15]; PREEMERGENCE, Rate 50 g/ha",3
same,"Plant response rating, Corn","[16]; POSTEMERGENCE, Rate 10 g/ha",4
same,"Plant response rating (0 to 10 scale), Corn","[16]; POSTEMERGENCE, Rate 50 g/ha",3
same,"Plant response rating, Corn","[16]; PREEMERGENCE, Rate 50 g/ha",0
same,"Plant response rating, Giant foxtail","[17]; POSTEMERGENCE, Rate 10 g/ha",5
same,"Plant response rating, Giant foxtail","[17]; POSTEMERGENCE, Rate 50 g/ha",5
same,"Plant response rating, Giant foxtail","[17]; PREEMERGENCE, Rate 10 g/ha",0
same,"Plant response rating, Giant foxtail","[17]; PREEMERGENCE, Rate 50 g/ha",3
same,"Plant response rating, Chickweed","[18]; 62 g/ha, 0 to 100 scale",90
same,"Plant response rating (0 to 100), Chickweed",[18]; Rate 4 g/ha,20
same,"Plant response rating (0 to 100), Chickweed",[18]; Rate 16 g/ha,80
